Measured values reported in patent publication US5807869A, “Quinoline derivatives, their production and use” (Takeda Chemical Industries, Ltd., priority 1995, dated 1998).
pIC50: −log10 of the molar value. Structures can show the parent of a compound that is named as a salt.

Molecular target: T1, human GnRH receptor (Homo sapiens, UniProt P30968)
T1 construct: expressed in transfected cells; host or cells: CHO (Chinese Hamster Ovary) cells
T1 sequence (P30968 1-328): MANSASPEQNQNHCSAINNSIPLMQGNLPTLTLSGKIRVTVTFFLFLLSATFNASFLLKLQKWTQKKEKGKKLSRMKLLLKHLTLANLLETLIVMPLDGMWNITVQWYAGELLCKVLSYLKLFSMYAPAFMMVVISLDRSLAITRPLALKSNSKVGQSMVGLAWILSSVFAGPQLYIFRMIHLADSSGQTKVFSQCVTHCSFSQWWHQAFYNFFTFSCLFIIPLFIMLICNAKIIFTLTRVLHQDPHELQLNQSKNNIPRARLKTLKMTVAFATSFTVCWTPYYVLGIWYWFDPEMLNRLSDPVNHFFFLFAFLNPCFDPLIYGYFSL
Assay: 125I-leuprorelin binding inhibition, membrane fraction of CHO cells expressing human GnRH receptors
Conditions: CHO cell membrane fraction, 25° C., 60 minutes, Hill plot, read-out: 125I-leuprorelin binding inhibitory rate IC50 value

- pIC50: 7.30
Compound: CCOC(=O)c1cn(Cc2c(F)cccc2F)c2cc(-c3ccc(NC(=O)CC)cc3)c(CN(C)Cc3ccccc3)cc2c1=O [Example 3, 6-(N-benzyl-N-methylaminomethyl)-1,4-dihydro-1-(2,6-difluorobenzyl)-7-(4-propionylaminophenyl)-4-oxoquinoline-3-carboxylic acid ethyl ester hydrochloride]
